This note sets out measurements from patent publication EP2060571A1, “Insecticide iminoheterocycles” (Bayer CropScience AG, priority 2007, dated 2009).

A short description of series [1]: logP determination (acidic, HCOOH). In kind it is physicochemical.
Series [2] has as its system Myzus persicae. Briefly: Myzus test (spray treatment). In kind it is in vivo. Conditions: Aufwandmenge 500 g/ha, Chinakohlblattscheiben (Brassica pekinensis) sprayed, 100 % = all aphids killed, read-out: Wirkung. From the text: Myzus-Test (Spritzbehandlung)
Zur Herstellung einer zweckmäßigen Wirkstoffzubereitung vermischt man 1 Gewichtsteil Wirkstoff mit den angegebenen Mengen Lösungsmittel und Emulgator und verdünnt das Konzentrat mit emulgatorhaltigem Wasser auf die gewünschte Konzentration.
Chinakohlblattscheiben (Brassica pekinensis), die von allen Stadien der Grünen Pfirsichblattlaus (Myzus persicae) befallen sind, werden mit einer Wirkstoffzubereitung der gewünschten Konzentration gespritzt.
Nach der gewünschten Zeit wird die Wirkung in % bestimmt. Dabei bedeutet 100 %, dass alle Blattläuse abgetötet wurden; 0 % bedeutet, dass keine Blattläuse abgetötet wurden.

The subject of series [3] is Boophilus microplus. Nature of the series: Boophilus microplus test (BOOPMI injection). In kind it is in vivo. Conditions: Aufwandmenge 20 µg/Tier; injected into the abdomen; 100 % = no tick laid fertile eggs. From the text: Boophilus microplus -Test (BOOPMI Injektion)
Lösungsmittel: Dimethylsulfoxid
Zur Herstellung einer zweckmäßigen Wirkstoffzubereitung vermischt man 1 Gewichtsteil Wirkstoff mit der angegebenen Menge Lösungsmittel und verdünnt das Konzentrat mit Lösungsmittel auf die gewünschte Konzentration.
Die Wirkstofflösung wird in das Abdomen (Boophilus microplus) injiziert, die Tiere werden in Schalen überführt und in einem klimatisierten Raum aufbewahrt.
Nach der gewünschten Zeit wird die Wirkung in % bestimmt. Dabei bedeutet 100%, dass keine Zecke fertile Eier gelegt hat.

Where [4] appears, read: acidic (HCOOH), read-out: Phys. Daten = logP (HCOOH).
[5] abbreviates: hcooh, read-out: Phys. Daten = logP (HCOOH).

Each structure is given as a SMILES string. Read-outs that look alike come from different tables or passages of the source.

As for `CC(C)c1cs/c(=N\C2CCc3ccsc32)n1CCO` (stereo not shown) [I-1, 2-[(2Z)-2-(5,6-dihydro-4H-cyclopenta[b]thiophen-6-ylimino)-4-(1-methylethyl)-1,3-thiazol-3(2H)-yl]ethanol], the logP was determined as 1.19 in series [1] (setting [4]) and 1.19 in series [1] (sauer, read-out: logP (sauer)). For the same molecule, in series [2], the mortality at 500 g/ha was at least 80%. This molecule gave a Wirkung in series [3] of at least 80%.

In the case of `CC(C)c1cs/c(=N\C2CCCc3occc32)n1CCO` (stereo not shown) [I-2], the logP stood at 1.23 in series [1] (setting [4]) and 1.23 in series [1] (sauer, read-out: logP (sauer)). In addition, the mortality at 500 g/ha in series [2] is at least 80%.

Take `OCCNC(=S)NC1CCc2ccsc21` (stereo not shown) [II-1, (5,6-dihydro-4H-cyclopenta[b]thiophen-6-yl)-3-(2-hydroxyethyl)thiourea]: the logP in series [1] (setting [5]) stood at 1.47; in series [1] (sauer, read-out: logP (sauer)) it was 1.47. Besides, the mortality at 500 g/ha in series [2] was at least 80%.

As to `OCCNC(=S)NC1CCCc2occc21` (stereo not shown) [II-2, 1-(2-hydroxyethyl)-3-(4,5,6,7-tetrahydro-1-benzofuran-4-yl)thiourea], the logP in series [1] (setting [5]) was determined as 1.4; in series [1] (sauer, read-out: logP (sauer)) it was 1.4. In series [2], the mortality at 500 g/ha is at least 80%.

On to `OCCNC(=S)NC1CCCc2sccc21` (stereo not shown) [II-3], for which the logP in series [1] (setting [5]) came to 1.7. Further, the mortality at 500 g/ha in series [2] was at least 80%.

Consider `C[C@H](NC(=S)NCCO)c1cccs1` [II-74], for which the logP in series [1] (setting [5]) is 1.3.

What is called logP is the decadic logarithm of the partition coefficient of the neutral form, usually between octanol and water.
